Assay results: PMC9867241, “Antioxidant and Cytotoxic Activity of New Polyphenolic Derivatives of Quinazolin-4(3H)-one: Synthesis and In Vitro Activities Evaluation” (Pharmaceutics, 2022)
≈ marks a conversion by molar mass, not a printed value.

How the values were obtained:
[1] = Fe^2+ chelation assay (ferrozine competition)
Protocol: In the protocol used for evaluating the Fe^2+ chelating ability of the compounds, the absorbances of the solutions were determined at λ = 562 nm, against a blank sample. The method was adapted from the initial report of Benzie and Strain et al., which was previously reported by our group. Using Equation (5), we calculated the iron chelation capacities of the 5a–d and 6a–d compounds:(5) iron chelation (%)=control absorbance−sample absorbance/control absorbance×100
The chelating capacity of the tested compounds of Fe^2+ was evaluated based on their competition for Fe^2+ with ferrozine.

[2] = Reducing power (RP) assay; set-up: concentration or dose not given beside the values; conditions: for RP, % of Activity of Trolox: relative to Trolox; for RP, % of Activity of Ascorbic Acid: relative to ascorbic acid
Protocol: Herein, the iron (III) is not free in the solution as it was in the FRAP assay and is complexed by cyanide ions. The evaluation of the reducing power (RP) was performed at a pH closer to neutral (pH = 6.6); this is different from the FRAP test, which is performed in an acidic environment. Against a blank sample, the absorbances were measured at λ = 700 nm. The followed protocol was based on the adaptation of previously reported protocols and was previously reported by our group. Using Equation (4), we calculated the reducing power of the 5a–d and 6a–d compounds as a percentage of the reference compounds activity.
The evaluated compounds can reduce ferricyanide to ferrocyanide, in the presence of ferric ions, resulting in the Perl’s Prussian which gives blue. The higher the percentage of reducing power, the higher was the absorbance that was measured due to a higher amount of colored complex resulting from the reaction.

[3] = system: A549 (lung adenocarcinoma) cells; test: Cytotoxicity, Alamar blue assay, A549 cells; type: cell-based; conditions: Homo sapiens, 24 h exposure
Excerpt: Normal human foreskin (BJ) fibroblasts and two types of cancer cells, namely A549 (lung adenocarcinoma) and LNCaP (prostate carcinoma) purchased from American Type Culture Collection (Manassas, VA, USA), were used in the experiments. Each cell line was maintained in a different culture medium, depending on the metabolic necessities of the cells. BJ cells were maintained in Dulbecco’s modified Eagle’s medium (DMEM) with low glucose. A549 cells were maintained in DMEM with high glucose […], while LNCaP cells were grown in Roswell Park Memorial Institute (RPMI) 1640 medium with high glucose (5 g/L). All media used were supplemented with 10% fetal bovine serum (FBS) and were refreshed every two days. Cells were used in experiments or subcultured when they reached 70–80% confluence.
In 100 µL in 96-well plates, a number of 30,000 LNCaP cells, 15,000 A549 cells, and 7500 normal (BJ) cells were seeded. Because the cells have different sizes and volumes, the purpose of the different seedings was to achieve a confluency of 70–80% after 24 h. All types of cells were further exposed to the synthesized compounds (5a–d and 6a–d) for 24 h, at a concentration ranging from 12.5 to 100 µg/mL. Post-exposure, the media were removed, and the cells were washed with phosphate buffer saline (PBS). Their viability was evaluated using Alamar blue (AB) assay as previously described. Briefly, the cells were incubated with a 200 µM resazurin solution for 4 h. Using a Synergy 2 multi-mode microplate reader, we measured the fluorescence. The measurement was performed at λexcitation = 530/25 nm; λemission = 590/35 nm. We conducted the experiments using three biological replicates, each one including 6 technical replicates. As negative controls (NC), cells exposed to culture medium containing 0.2% DMSO were used. Compared to the NC (100%), the results were expressed as relative values. We used IC50 values for the potency evaluation, and calculated them for each cell line, using the dose-effect curves obtained by fitting the experimental data with a 4-parameter logistic curve.
Mean values ± standard deviation (SD) values of at least three biological replicates were used to calculate experimental data. One-way analysis of variance (ANOVA) with a post hoc Holm–Sidak test was used to statistically examine the data. Using SigmaPlot 11.0 software (Systat, Software Inc., Chicago, IL, USA), we performed the graphical display and data analysis. From a statistical point of view, the results were considered different, at values of p < 0.05.

[4] = Molecular properties computed with SwissADME; conditions: ratio of computed water solubilities
Excerpt: In order to obtain preliminary information regarding molecular properties which could influence the pharmacokinetics of the compounds, we obtained them using SwissADME [44]. The evaluated molecular properties were the topological polar surface area (TPSA), octanol–water partition coefficient expressed as Moriguchi’s LogP [46], water solubility and violations of the Lipinski’s rule of five.

[5] = ABTS˙+ radical scavenging assay
Protocol: The stock solutions (1 mg/mL) of the tested compounds and the controls were obtained, by dissolving the substances in dimethyl sulfoxide (DMSO). Using Jasco V-530, an UV-VIS spectrophotometer (Jasco International Co., Ltd., Tokyo, Japan), we performed the colorimetric determinations in low-volume single-use 10 mm width cuvettes.
The assays were performed in triplicate and the results are presented as averages for each assay.

[6] = Phosphomolybdate assay for total antioxidant capacity (TAC); set-up: concentration or dose not given beside the values; conditions: for TAC, % of Activity of Trolox: relative to Trolox; for TAC, % of Activity of Ascorbic Acid: relative to ascorbic acid
Excerpt: Using the phosphomolybdate assay, we determined the total antioxidant capacity (TAC) of the tested compounds. We measured the solutions’ absorbances against a blank sample at λ = 695 nm, using a previously reported procedure by our group, based on initial literature reports. Using Equation (4), we calculated the TAC of 5a–d and 6a–d compounds.
At acidic pH, the tested compounds transfer one electron to Mo^6+ to reduce it to Mo^5+.

[7] = NO˙ radical scavenging assay (Griess reaction); conditions: PBS pH 7.4, sodium nitroprusside
Protocol: The scavenging of the NO˙ radical was performed by applying previously reported protocols. The in vitro protocol describes the decomposition of sodium nitroprusside in phosphate buffered saline (PBS) at pH = 7.4. The NO˙ radicals would be involved in a Griess reaction if they were not captured by the tested compounds. This reaction results from the formation of an azo dye, with maximum absorption at 546 nm. This azo dye is formed from sulfanilic acid and naphthyl ethylenediamine dichloride.

Row | IC50 [5] | IC50 (ABTS˙^+ scavenging) [5] | Structure (SMILES) | Ferrous ions Chelation Capacity (%) ([1]; 17.70 µg/mL) | Ferrous ions Chelation Capacity (%) ([1]; 20.59 µg/mL) | Ferrous ions Chelation Capacity (%) ([1]; 29.41 µg/mL) | Ferrous ions Chelation Capacity (%) ([1]; 44.11 µg/mL) | Ferrous ions Chelation Capacity (%) ([1]; 58.82 µg/mL) | Ferrous ions Chelation Capacity (%) ([1]; 88.23 µg/mL) | Ferrous ions Chelation Capacity (%) ([1]; 117.64 µg/mL) | Ferrous ions Chelation Capacity (%) ([1]; 257.46 µg/mL) | Ferrous ions Chelation Capacity (%) ([1]; 343.28 µg/mL) | RP, % of Activity of Trolox [2] | RP, % of Activity of Ascorbic Acid [2] | IC50 [3] | % of ABTS˙^+ Scavenging ([5]; 0.83 µg/mL) | % of ABTS˙^+ Scavenging ([5]; 1.67 µg/mL) | % of ABTS˙^+ Scavenging ([5]; 3.33 µg/mL) | % of ABTS˙^+ Scavenging ([5]; 4.99 µg/mL) | % of ABTS˙^+ Scavenging ([5]; 6.66 µg/mL) | % of ABTS˙^+ Scavenging ([5]; 9.99 µg/mL) | other results
1 | 3.86 µM | 1.60 µg/mL (≈ 3.86 µM) | CCn1c(SCC(=O)NN=Cc2ccc(O)c(O)c2O)nc2ccccc2c1=O [Compound 5c, 2-((3-Ethyl-4-oxo-3,4-dihydroquinazolin-2-yl)thio)-N’-(2,3,4-trihydroxybenzylidene)acetohydrazide] | - (- represents less than 5%) | - (- represents less than 5%) | - (- represents less than 5%) | - (- represents less than 5%) | - (- represents less than 5%) | - (- represents less than 5%) | 20.27% | 65.75% | 89.24% | 72.75% | 49.93% | 49.1 µg/mL | 39.05% | 52.25% | 72.57% | + (+ represents more than 95%) | + (+ represents more than 95%) | + (+ represents more than 95%) | times more soluble in water than 6b [4]: 24 times; % of ABTS˙^+ Scavenging ([5]; 13.32 µg/mL): + (+ represents more than 95%); TAC, % of Activity of Trolox [6]: 163.49%; TAC, % of Activity of Ascorbic Acid [6]: 84.73%; melting point: 208 °C; % of NO˙ Scavenged [7]: 43.21%
2 | 11.7 µM | 5.17 µg/mL (≈ 11.7 µM) | CCCCn1c(SCC(=O)NN=C(C)c2ccc(O)cc2O)nc2ccccc2c1=O [Compound 6d, 2-((3-butyl-4-oxo-3,4-dihydroquinazolin-2-yl)thio)-N’-(1-(2,4-dihydroxyphenyl)ethylidene)acetohydrazide] | - (- represents less than 5%) | - (- represents less than 5%) | - (- represents less than 5%) | - (- represents less than 5%) | - (- represents less than 5%) | - (- represents less than 5%) | - (- represents less than 5%) | - (- represents less than 5%) | - (- represents less than 5%) | 24.53% | 16.84% | 32.4 µg/mL | 29.08% | 33.32% | 40.37% | 50.24% | 57.59% | 75.41% | % of ABTS˙^+ Scavenging ([5]; 13.32 µg/mL): 85.79%; TAC, % of Activity of Trolox [6]: 76.63%; TAC, % of Activity of Ascorbic Acid [6]: 39.72%; melting point: 225 °C; % of NO˙ Scavenged [7]: 30.71%
3 | 3.5 µM | 1.55 µg/mL (≈ 3.5 µM) | CCCCn1c(SCC(=O)NN=Cc2ccc(O)c(O)c2O)nc2ccccc2c1=O [Compound 5d, 2-((3-Butyl-4-oxo-3,4-dihydroquinazolin-2-yl)thio)-N’-(2,3,4-trihydroxybenzylidene)acetohydrazide] | - (- represents less than 5%) | - (- represents less than 5%) | - (- represents less than 5%) | - (- represents less than 5%) | - (- represents less than 5%) | - (- represents less than 5%) | 58.18% | 71.56% | 80.50% | 72.18% | 49.54% | 42.1 µg/mL | 41.98% | 52.25% | 67.46% | 81.06% | + (+ represents more than 95%) | + (+ represents more than 95%) | % of ABTS˙^+ Scavenging ([5]; 13.32 µg/mL): + (+ represents more than 95%); TAC, % of Activity of Trolox [6]: 117.87%; TAC, % of Activity of Ascorbic Acid [6]: 61.09%; melting point: 239 °C; % of NO˙ Scavenged [7]: 35.14%
4 | 4.01 µM | 1.91 µg/mL (≈ 4.01 µM) | O=C(CSc1nc2ccccc2c(=O)n1Cc1ccccc1)NN=Cc1ccc(O)c(O)c1O [Compound 5b, 2-((3-Benzyl-4-oxo-3,4-dihydroquinazolin-2-yl)thio)-N’-(2,3,4-trihydroxybenzylidene)acetohydrazide] | - (- represents less than 5%) | - (- represents less than 5%) | - (- represents less than 5%) | - (- represents less than 5%) | - (- represents less than 5%) | - (- represents less than 5%) | - (- represents less than 5%) | 19.02% | 35.16% | 85.68% | 58.80% | 69.5 µg/mL | 34.65% | 49.32% | 68.62% | 85.98% | + (+ represents more than 95%) | + (+ represents more than 95%) | % of ABTS˙^+ Scavenging ([5]; 13.32 µg/mL): + (+ represents more than 95%); TAC, % of Activity of Trolox [6]: 156.96%; TAC, % of Activity of Ascorbic Acid [6]: 81.34%; melting point: 228 °C; % of NO˙ Scavenged [7]: 36.75%
